Data as given in patent publication US11279714B2, “Anti-infective compounds” (priority 2014, dated 2022).
In brackets after ≈: the same amount, converted by molar mass.

How the values were obtained:
[1] = tested on: Raw 264.7 cells infected with H37Rv-GFP; experiment: microbe, parasite or virus in culture; format: cell-based, M. tuberculosis; conditions: Mycobacterium tuberculosis, H37RV, 120 h; read-out: QIM (MIC50)
[2] = tested on: M. tuberculosis H37Rv expressing the green fluorescent protein (H37Rv-GFP); experiment: microbe, parasite or virus in culture; format: cell-based; conditions: Mycobacterium tuberculosis, H37RV, 120 h; read-out: QUM (MIC50)

Compound	MIC50 [1] [µM]	MIC50 [2] [µM]	melting point [°C]
CN(C(=O)c1cc2nc(N3CCCCC3)sc2s1)c1ccc(F)c(F)c1 [Compound 20]	> 20	1 to 20 (≈ 0.393 to 7.87 µg/mL)	170.1
COc1ccc(NC(=O)c2cc3sc(N4CC5CC4CN5C(=O)OC(C)(C)C)nc3s2)cc1 (stereo not drawn) [Compound 93]	> 20	> 20	249
COCn1c(N2CCOCC2)nc2sc(C(=O)Nc3ccc4oc(C)nc4c3)cc21 [Compound 179]	> 20	> 20	117.2
CC(=O)c1ccc(NC(=O)c2cc3sc(N4CCOCC4)nc3s2)cc1 [Compound 188]	< 1	< 1	248
COc1ccc(NC(=O)c2cc3sc(NC(=O)C4CCCCC4)nc3s2)cc1 [Compound 65]	1 to 20 (≈ 0.416 to 8.31 µg/mL)	> 20	271
O=C(Nc1ccc(F)cc1)c1cc2sc(N3CCC(O)CC3)nc2s1 [Compound 134]	< 1	< 1	241.7
COc1ncc(NC(=O)c2cc3nc(N4CCCCC4)sc3s2)cn1 [Compound 6]	1 to 20 (≈ 0.375 to 7.51 µg/mL)	1 to 20 (≈ 0.375 to 7.51 µg/mL)	274
Cc1nc2cc(NC(=O)c3sc4nc(N5CCOCC5)sc4c3Br)ccc2o1 [Compound 157]	> 20	> 20	269
COc1ccc(NC(=O)c2cc3sc(N4CCC4)nc3s2)cc1 [Compound 80]	< 1	1 to 20 (≈ 0.345 to 6.91 µg/mL)	256
Cc1nc2cc(NC(=O)c3cc4sc(N5CCC(COc6ccc(Cl)cc6)CC5)nc4s3)ccc2o1 [Compound 195]	< 1	> 20	256
O=C(Nc1ccc(CN2CCC(c3ccc(Cl)cc3)CC2)cc1)c1cc2sc(N3CCOCC3)nc2s1 [Compound 200]	> 20	> 20	254.6
CN(C)C(=O)C1CCN(c2nc3sc(C(=O)Nc4ccc5oc(-c6ccc(F)cc6)nc5c4)cc3s2)CC1 [Compound 171]	< 1	> 20	323
O=C(Nc1ccc(Oc2ccccc2)cc1)c1cc2nc(N3CCCCC3)sc2s1 [Compound 15]	> 20	> 20	225.8
COc1ccc(NC(=O)c2cc3sc(NC4CCCCC4)nc3s2)cc1 [Compound 79]	< 1	> 20	231
COc1ccc(NC(=O)c2cc3sc(N4CCCCC4)nc3s2)cn1 [Compound 47]	< 1	< 1	232.4
O=C(Nc1ccc(-c2cc3n(n2)CCO3)cc1)c1cc2sc(N3CCOCC3)nc2s1 [Compound 164]	> 20	> 20	361.2
O=C(Nc1ccc2ncoc2c1)c1cc2sc(N3CCOCC3)nc2s1 [Compound 101]	< 1	1 to 20 (≈ 0.386 to 7.73 µg/mL)	281.8
O=C(Nc1ccc(-n2ccnc2)cc1)c1cc2sc(N3CCOCC3)nc2s1 [Compound 182]	> 20	> 20	266
COc1ccc(NC(=O)c2cc3sc(C(C)C)nc3s2)cc1 [Compound 115]	< 1	1 to 20 (≈ 0.332 to 6.65 µg/mL)	149
O=C(Nc1ccc(-c2ccn(C3CCCCO3)n2)cc1)c1cc2sc(N3CCOCC3)nc2s1 (stereo not drawn) [Compound 155]	< 1	> 20	293
O=C(Nc1ccc(Cl)cc1)c1cc2nc(N3CCCCC3)sc2s1 [Compound 29]	1 to 20 (≈ 0.378 to 7.56 µg/mL)	1 to 20 (≈ 0.378 to 7.56 µg/mL)	230

Compound	MIC50 [1] [µM]	MIC50 [2] [µM]	melting point [°C]
Cc1nc2cc(NC(=O)c3cc4sc(N5CCOC(C(=O)N(C)C)C5)nc4s3)ccc2o1 (stereo not drawn) [Compound 169]	1 to 20 (≈ 0.472 to 9.43 µg/mL)	1 to 20 (≈ 0.472 to 9.43 µg/mL)	247.5
Cc1nc2cc(NC(=O)c3cc4sc(N5CCOCC5)nc4s3)c(Cl)cc2o1 [Compound 141]	> 20	> 20	277
COc1cc(NC(=O)c2cc3nc(N4CCCCC4)sc3s2)cc(OC)c1 [Compound 4]	> 20	> 20	231.2
CCc1cc2oc(C)nc2cc1NC(=O)c1cc2sc(N3CCOCC3)nc2s1 [Compound 150]	> 20	> 20	244
COc1ccc(NC(=O)c2ccc3nc(N4CCCCC4)sc3c2)cc1 [Compound 5]	> 20	> 20	214
O=C(Nc1cccc(Oc2ccccc2)c1)c1cc2sc(N3CCOCC3)nc2s1 [Compound 87]	1 to 20 (≈ 0.438 to 8.75 µg/mL)	1 to 20 (≈ 0.438 to 8.75 µg/mL)	169.5
Cc1nc2cc(NC(=O)c3cc4sc(N5CCC(O)CC5)nc4s3)ccc2o1 [Compound 122]	< 1	< 1	238.5
COc1ccc(NC(=O)c2cc3sc(N4CC5CC4CN5)nc3s2)cc1 (stereo not drawn) [Compound 94]	> 20	> 20	161
Cc1nn(C)cc1-c1ccc(NC(=O)c2cc3sc(N4CCOCC4)nc3s2)cc1 [Compound 167]	< 1	1 to 20 (≈ 0.44 to 8.79 µg/mL)	245
O=C(Nc1ccc2ncccc2c1)c1cc2sc(N3CCCCC3)nc2s1 [Compound 40]	< 1	1 to 20 (≈ 0.395 to 7.89 µg/mL)	279.5
O=C(Nc1ccc(F)cc1)c1cc2sc(N3CCC(CO)CC3)nc2s1 [Compound 142]	< 1	< 1	246.3
COc1cc(NC(=O)c2cc3sc(N4CCCCC4)nc3s2)cc(OC)c1 [Compound 37]	> 20	> 20	148
COc1ccc(NC(=O)c2cc3sc(N4CCCCC4)nc3s2)cc1 [Compound 35]	< 1	< 1	235
COc1ccc(NC(=O)c2cc3sc(N4CCCC4)nc3s2)cc1 [Compound 78]	< 1	< 1	274.4
COc1c(C(=O)Nc2ccc3oc(C)nc3c2)sc2nc(N3CCOCC3)sc12 [Compound 172]	> 20	> 20	269
CC(C)(C)OC(=O)c1ccc(NC(=O)c2cc3sc(N4CCOCC4)nc3s2)cc1 [Compound 129]	< 1	1 to 20 (≈ 0.446 to 8.91 µg/mL)	244
COc1ccc(CCNC(=O)c2cc3sc(N4CCCCC4)nc3s2)cc1 [Compound 42]	< 1	1 to 20 (≈ 0.402 to 8.03 µg/mL)	177.2
O=C(Nc1ccc2[nH]ncc2c1)c1cc2sc(N3CCOCC3)nc2s1 [Compound 89]	> 20	> 20	329.8
CCN(CC)C(=O)c1cc2sc(N3CCCCC3)nc2s1 [Compound 57]	1 to 20 (≈ 0.323 to 6.47 µg/mL)	1 to 20 (≈ 0.323 to 6.47 µg/mL)	84
O=C(Nc1ccc(F)c(F)c1)c1cc2nc(N3CCCCC3)sc2s1 [Compound 3]	< 1	1 to 20 (≈ 0.379 to 7.59 µg/mL)	246.3
Cc1nc2cc(NC(=O)N3CCc4nc(N5CCOCC5)sc4C3)ccc2o1 [Compound 187]	> 20	> 20	104
